Measurements reported in PMC8200971, “Design, Synthesis, Biological Evaluation and Silico Prediction of Novel Sinomenine Derivatives” (Molecules, 2021).

Key:
[1] = tested on: MCF-7 (human breast cancer cell lines); experiment: CCK8 cytotoxicity assay; assay type: cell-based; settings: Homo sapiens, MCF7, 60 h; for IC50: read-out: IC50 MCF-7; for inhibition at 2.5 µM / inhibition at 25 µM: read-out: growth inhibition ratio (mean ± SD)
Description: (§1) Cytotoxicity screens were performed to assess the in vitro anticancer activity of the synthesized sinomenine derivatives 6a–6l on the various cancer cell lines MCF-7, Hela, SW480, and A549, as well as on Hek293 as a normal cell line, at doses of 2.5 and 25 μM. The obtained inhibition ratios data were used to construct a heat map (Figure 3, Tables S1 and S2) in order to select compounds that exert cancer cell line-specific cytotoxicity. Then, the IC50 values of the promising compound were determined. Cisplatin was used as a reference standard. The antiproliferative activity was based on the evaluation of the percent viability using the CCK8 assay, which is a rapid and sensitive method for determining the number of viable cells in culture. In the presence of electronic coupling reagents, WST-8 can be reduced by a dehydrogenase in the mitochondria to produce a highly water-soluble orange-yellow formazan product. Its color is proportional to the proliferation of the number of viable cells and is related to cytotoxicity. Using a microplate reader to measure the OD value can indirectly reflect the number of living cells at 450 nm wavelength.
(§2) To understand structure–function relationships, these selected compounds were subjected to subsequent analyses. All six compounds (6a and 6c–6g) were further examined to determine their IC50 concentrations on the previously mentioned cell lines, and their efficacy was compared to the reference drug cisplatin. For this, six compounds and cisplatin were evaluated on Hela, MCF-7, SW480, and A549, and on noncancerous Hek293 cell lines at various concentrations for 60 h. IC50 values were calculated (Table 2).
(§3) The MCF-7 (human breast cancer cell lines), Hela (human cervical cancer cell lines), SW480 (human colon adenocarcinoma cell lines), A549 (human lung adenocarcinoma cell lines) and nontoxic normal cells Hek293 (human embryonic kidney cell lines) cells were used to measure the cytotoxicity of the 6a–6l. They were obtained from the Beijing Normal University (Beijing, China). The test cell lines were cultured in DMEM, IMDM, F12 and DMEM nutrient medium containing 10% heat-inactivated fetal bovine serum, […] and 100 units/mL penicillin in a humified, 5% (v/v) CO2 atmosphere at 37 °C.
(§4) Cell viability was estimated using the CCK8 assay. Tumor cells ([…]) viz. MCF-7, Hela, SW480, A549 and nontoxic normal cells Hek293 were seeded in medium containing Corning® 96-well tissue culture plates at confluences of […], respectively, in Incucyte ZOOM. Fresh medium (100 μL) containing different concentrations of the test sample was added after 12 h of seeding. The microtiter plates were incubated at 37 °C in a humidified incubator with 5% CO2 for 60 h. Triplicates from each concentration were used. Negative control cells were incubated without sample and cisplatin as a positive control. At the end of treatment, the numbers of viable cells were determined by the CCK8 test. In brief, the media was removed from the 96 well plates and replaced with 100 μL of fresh culture medium with 10% CCK8 solution added to each well including the untreated controls. The 96 well plates were then incubated at 37 °C and 5% CO2 for 1–4 h. Then, the absorbance was measured at 450 nm using a BMG LABTECH®-POLAR star Omega microplate reader (Ortenberg, Germany) to determine the number of viable cells, and the percentage of viability was calculated as ((ODt- ODb/ODc- ODb)) × 100%, where ODt is the mean optical density of wells treated with the tested sample, ODc is the mean optical density of wells treated with DMSO and ODb is the mean optical density of PBS wells without cells. The relation between surviving cells and drug concentrations were plotted to get the survival curve of each tumor cell line after treatment with the specified compound. […]

[2] = tested on: SW480 (human colon adenocarcinoma cell lines); experiment: CCK8 cytotoxicity assay; assay type: cell-based; settings: Homo sapiens, SW480, 60 h; for IC50: read-out: IC50 SW480; for inhibition at 2.5 µM / inhibition at 25 µM: read-out: growth inhibition ratio (mean ± SD)
Description: as §1, §2, §3, §4

[3] = tested on: Hela (human cervical cancer cell lines); experiment: CCK8 cytotoxicity assay; assay type: cell-based; settings: Homo sapiens, HeLa, 60 h; for IC50: read-out: IC50 Hela; for inhibition at 2.5 µM / inhibition at 25 µM: read-out: growth inhibition ratio (mean ± SD)
Description: as §1, §2, §3, §4

[4] = tested on: A549 (human lung adenocarcinoma cell lines); experiment: CCK8 cytotoxicity assay; assay type: cell-based; settings: Homo sapiens, A549, 60 h; for IC50: read-out: IC50 A549; for inhibition at 2.5 µM / inhibition at 25 µM: read-out: growth inhibition ratio (mean ± SD)
Description: as §1, §2, §3, §4

[5] = tested on: Hek293 (human embryonic kidney cell lines); experiment: CCK8 cytotoxicity assay, normal cells; assay type: cell-based; settings: Homo sapiens, HEK293, 60 h; for IC50: read-out: IC50 Hek293; for inhibition at 2.5 µM / inhibition at 25 µM: read-out: growth inhibition ratio (mean ± SD)
Description: as §1, §2, §3, §4

Row | Compound | melting point [°C] | IC50 [1] [µM] | inhibition at 2.5 µM [1] [%] | inhibition at 25 µM [1] [%] | IC50 [2] [µM] | inhibition at 2.5 µM [2] [%] | inhibition at 25 µM [2] [%] | IC50 [3] [µM] | inhibition at 2.5 µM [3] [%] | inhibition at 25 µM [3] [%] | IC50 [4] [µM] | inhibition at 2.5 µM [4] [%] | inhibition at 25 µM [4] [%] | IC50 [5] [µM] | inhibition at 2.5 µM [5] [%] | inhibition at 25 µM [5] [%]
1 | COC1=C[C@@H]2[C@@H]3Cc4c(CN5CCCC5)cc(OC)c(OC(=O)Cc5cccc(Cl)c5)c4[C@]2(CCN3C)CC1=O [6e, (4bR,8aS,9S)-3,7-dimethoxy-11-methyl-6-oxo-1-(pyrrolidin-1-ylmethyl)-6,8a,9,10-tetrahydro-5H-9,4b-(epiminoethano)phenanthren-4-yl 2-(3-chlorophenyl)acetate] | 68 to 72 | 14.9 ± 0.15 | 6.92 ± 2.62 | 77.85 ± 0.45 | > 25 | 29.4 ± 7.71 | 61 ± 7.14 | 13.3 ± 0.95 | 3.21 ± 2.37 | 80.9 ± 2.05 | 17.9 ± 0.74 | 25.6 ± 1 | 61.06 ± 0.13 | 16.6 ± 0.64 | 14.4 ± 2.54 | 63.3 ± 11.4
2 | COC1=C[C@@H]2[C@@H]3Cc4c(CN5CCCC5)cc(OC)c(OC(=O)Cc5ccccc5C)c4[C@]2(CCN3C)CC1=O [6f, (4bR,8aS,9S)-3,7-dimethoxy-11-methyl-6-oxo-1-(pyrrolidin-1-ylmethyl)-6,8a,9,10-tetrahydro-5H-9,4b-(epiminoethano)phenanthren-4-yl 2-(o-tolyl)acetate] | 72 to 75 | > 25 | 0 | 31.4 ± 3.72 | > 25 | 20.8 ± 5.63 | 55.7 ± 6.94 | > 25 | 7.82 ± 4.1 | 58.7 ± 2.64 | 25.1 ± 1.72 | 25 ± 1.05 | 57.09 ± 0.06 | 10.1 ± 0.42 | 16.8 ± 2.39 | 64.3 ± 14.6
3 | COC1=C[C@@H]2[C@@H]3Cc4c(CN5CCCC5)cc(OC)c(OC(=O)Cc5ccc(Cl)c(Cl)c5)c4[C@]2(CCN3C)CC1=O [6g, (4bR,8aS,9S)-3,7-dimethoxy-11-methyl-6-oxo-1-(pyrrolidin-1-ylmethyl)-6,8a,9,10-tetrahydro-5H-9,4b-(epiminoethano)phenanthren-4-yl 2-(3,4-dichlorophenyl)acetate] | 160 to 164 | > 25 | 6.59 ± 4.98 | 34.6 ± 2.06 | > 25 | 11.8 ± 7.5 | 56 ± 5.88 | 11.9 ± 0.6 | 35.3 ± 4.37 | 93.85 ± 0.2 | > 25 | 20.3 ± 0.78 | 43.9 ± 1.11 | 4.71 ± 0.48 | 9.72 ± 1.96 | 59.9 ± 16.9
4 | COC1=C[C@@H]2[C@@H]3Cc4c(CN5CCCC5)cc(OC)c(OC(=O)Cc5ccccc5)c4[C@]2(CCN3C)CC1=O [6h, (4bR,8aS,9S)-3,7-dimethoxy-11-methyl-6-oxo-1-(pyrrolidin-1-ylmethyl)-6,8a,9,10-tetrahydro-5H-9,4b-(epiminoethano)phenanthren-4-yl 2-phenylacetate] | 165 to 168 | – | 5.79 ± 10 | 0 | – | 28.2 ± 10.3 | 37.8 ± 9.83 | – | 11.2 ± 10 | 21.2 ± 4.4 | – | 20.6 ± 0.77 | 52.3 ± 0.76 | – | 17.4 ± 1.49 | 46 ± 22.4
5 | COC1=C[C@@H]2[C@@H]3Cc4c(CN5CCCC5)cc(OC)c(OC(=O)Cc5ccc(OC)cc5)c4[C@]2(CCN3C)CC1=O [6i, (4bR,8aS,9S)-3,7-dimethoxy-11-methyl-6-oxo-1-(pyrrolidin-1-ylmethyl)-6,8a,9,10-tetrahydro-5H-9,4b-(epiminoethano)phenanthren-4-yl 2-(4-methoxyphenyl)acetate] | 76 to 79 | – | 11.7 ± 5.99 | 0 | – | 28.6 ± 9.02 | 38.9 ± 9.65 | – | 7.79 ± 6.01 | 29.2 ± 5.29 | – | 23.5 ± 0.76 | 51.77 ± 0.5 | – | 13.3 ± 0.21 | 46.9 ± 16.7
